From patent publication US10351575B2, “Bicyclic urea, thiourea, guanidine and cyanoguanidine compounds useful for the treatment of pain” (Array BioPharma Inc., priority 2012, dated 2019)

Target: His-tagged recombinant human TrkA (Homo sapiens (Human), UniProt P04629)
Assay: TrkA LanthaScreen Eu Kinase Binding Assay
Conditions: averaged IC50; TR-FRET binding, 60 min, 22° C.; read-out: TrkA Enzyme IC50
Description: TrkA binding activity was determined in a TrkA LanthaScreen™ Eu Kinase Binding Assay. 5 nM His-tagged recombinant human TrkA (6HIS tagged cytoplasmic domain from Invitrogen, Catalog No. PV3144) was incubated with 4 nM Alexa-Fluor® Tracer 236 (Invitrogen Cat. No. PV5592), 2 nM biotinylated anti-His (Invitrogen Cat. No. PV6090), and 2 nM europium-labeled Streptavidin (Invitrogen Cat. No. PV5899), in buffer (25 mM MOPS, pH 7.5, 5 mM MgCl2, 0.005% Triton X-100). Three fold serial dilutions of compounds of the invention in DMSO were added to a final percentage of 2% DMSO. After 60-minute incubation at 22° C., the reaction was measured using the EnVision mutlimode plate reader (PerkinElmer) via TR-FRET dual wavelength detection at […]. The percent of control was calculated using a ratiometric emission factor. The IC50 values were determined by fitting a four parameter model to the percent of control data.

Chain of His-tagged recombinant human TrkA (P04629 440-796): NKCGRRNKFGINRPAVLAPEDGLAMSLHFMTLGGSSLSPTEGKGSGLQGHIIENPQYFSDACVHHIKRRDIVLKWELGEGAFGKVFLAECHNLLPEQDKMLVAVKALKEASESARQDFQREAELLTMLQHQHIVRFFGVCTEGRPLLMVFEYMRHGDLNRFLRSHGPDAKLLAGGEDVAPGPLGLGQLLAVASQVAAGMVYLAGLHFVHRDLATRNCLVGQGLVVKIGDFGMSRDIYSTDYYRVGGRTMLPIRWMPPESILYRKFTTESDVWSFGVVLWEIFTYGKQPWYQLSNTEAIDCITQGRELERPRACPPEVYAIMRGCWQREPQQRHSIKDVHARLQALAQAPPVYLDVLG

| Structure (SMILES) | IC50 [nM] |
| --- | --- |
| CNC(=O)c1nn(-c2ccccc2)c(NC(=O)N[C@@H]2c3cc(Cl)ccc3C(C)(C)C[C@H]2O)c1C (relative stereo) [Example 125, 5-(3-(trans-7-chloro-2-hydroxy-4,4-dimethyl-1,2,3,4-tetrahydronaphthalen-1-yl)ureido)-N,4-dimethyl-1-phenyl-1H-pyrazole-3-carboxamide] | < 100 |
| Cc1nn(-c2ccccc2)c(NC(=O)N[C@@H]2c3ccccc3CCC[C@H]2O)c1C (relative stereo) [Example 126, 1-(3,4-dimethyl-1-phenyl-1H-pyrazol-5-yl)-3-(trans-6-hydroxy-6,7,8,9-tetrahydro-5H-benzo[7]annulen-5-yl)urea] | 100 to 1000 |
| Cc1ncc(-c2nn(-c3ccccc3)c(NC(=O)N[C@@H]3c4ccccc4CCC[C@H]3O)c2C)cn1 (relative stereo) [Example 127, 1-(trans-6-hydroxy-6,7,8,9-tetrahydro-5H-benzo[7]annulen-5-yl)-3-(4-methyl-3-(2-methylpyrimidin-5-yl)-1-phenyl-1H-pyrazol-5-yl)urea] | 100 to 1000 |
| COc1ncc(-c2nn(-c3ccccc3)c(NC(=O)N[C@@H]3c4ccccc4CCC[C@H]3O)c2C)cn1 (relative stereo) [Example 128, 1-(trans-6-hydroxy-6,7,8,9-tetrahydro-5H-benzo[7]annulen-5-yl)-3-(3-(2-methoxypyrimidin-5-yl)-4-methyl-1-phenyl-1H-pyrazol-5-yl)urea] | 100 to 1000 |
| Cc1c(-c2cnn(C)c2)nn(-c2ccccc2)c1NC(=O)N[C@@H]1c2ccccc2C2(CCC2)[C@H]1O (relative stereo) [Example 142, 1-(1′,4-dimethyl-1-phenyl-1H,1′H-[3,4′-bipyrazol]-5-yl)-3-(trans-2′-hydroxy-2′,3′-dihydrospiro[cyclobutane-1,1′-inden]-3′-yl)urea] | < 100 |
| COc1nn(-c2ccccc2)c(NC(=O)N[C@@H]2c3ccccc3C3(CC3)C[C@H]2O)c1C (relative stereo) [Example 152, 1-(trans-3′-hydroxy-3′,4′-dihydro-2′H-spiro[cyclopropane-1,1′-naphthalen]-4′-yl)-3-(3-methoxy-4-methyl-1-phenyl-1H-pyrazol-5-yl)urea] | < 100 |
| COc1nn(-c2ccccc2)c(NC(=O)N[C@@H]2c3ccccc3OC3(CCC3)[C@H]2O)c1C (relative stereo) [Example 159, 1-(trans-3-hydroxyspiro[chroman-2,1′-cyclobutan]-4-yl)-3-(3-methoxy-4-methyl-1-phenyl-1H-pyrazol-5-yl)urea] | < 100 |
| Cc1c(-c2cnn(C)c2)nn(-c2ccccc2)c1NC(=O)N[C@@H]1c2ccccc2OC2(CCC2)[C@H]1O (relative stereo) [Example 160, 1-(1′,4-dimethyl-1-phenyl-1H,1′H-[3,4′-bipyrazol]-5-yl)-3-(trans-3-hydroxyspiro[chroman-2,1′-cyclobutan]-4-yl)urea] | < 100 |
| Cc1c(-c2cnn(C)c2)nn(-c2ccccc2)c1NC(=O)N[C@H]1c2ccccc2C2(CC2)[C@@H]1O (stereo in doubt) [Example 138, 1-(1′,4-dimethyl-1-phenyl-1H,1′H-[3,4′-bipyrazol]-5-yl)-3-((2′S,3′S)-2′-hydroxy-2′,3′-dihydrospiro[cyclopropane-1,1′-inden]-3′-yl)urea] | 100 to 1000 |
| Cc1c(-c2cnn(C)c2)nn(-c2ccccc2)c1NC(=O)NC1CCCc2ccccc21 (stereo not drawn) [Example 1, 1-(1′,4-dimethyl-1-phenyl-1H,1′H-3,4′-bipyrazol-5-yl)-3-(1,2,3,4-tetrahydronaphthalen-1-yl)urea] | < 100 |
| O=C(Nc1c2c(nn1-c1ccccc1)CCC2)N[C@H]1CCCc2ccccc21 [Example 3, (S)-1-(2-phenyl-2,4,5,6-tetrahydrocyclopenta[c]pyrazol-3-yl)-3-(1,2,3,4-tetrahydronaphthalen-1-yl)urea] | < 100 |
| Cc1c(-c2cnn(C)c2)nn(-c2ccccc2)c1NC(=O)N[C@@H]1CCCc2ccccc21 [Example 4, (R)-1-(1′,4-dimethyl-1-phenyl-1H,1′H-3,4′-bipyrazol-5-yl)-3-(1,2,3,4-tetrahydronaphthalen-1-yl)urea] | 100 to 1000 |
| COc1ccc2c(c1)CCCC2NC(=O)Nc1c(C)c(-c2cnn(C)c2)nn1-c1ccccc1 (stereo not drawn) [Example 5, 1-(1′,4-dimethyl-1-phenyl-1H,1′H-3,4′-bipyrazol-5-yl)-3-(6-methoxy-1,2,3,4-tetrahydronaphthalen-1-yl)urea] | 100 to 1000 |
| Cc1c(-c2cnn(C)c2)nn(-c2ccccc2)c1NC(=O)NC1CCCCc2ccccc21 (stereo not drawn) [Example 6, 1-(1′,4-dimethyl-1-phenyl-1H,1′H-3,4′-bipyrazol-5-yl)-3-(6,7,8,9-tetrahydro-5H-benzo[7]annulen-5-yl)urea] | < 100 |
| Cc1c(-c2cnn(C)c2)nn(-c2ccccc2)c1NC(=O)NC1CCOc2ccccc21 (stereo not drawn) [Example 7, 1-(chroman-4-yl)-3-(1′,4-dimethyl-1-phenyl-1H,1′H-3,4′-bipyrazol-5-yl)urea] | 100 to 1000 |
| Cc1c(-c2cnn(C)c2)nn(-c2ccccc2)c1NC(=O)NC1COCc2ccccc21 (stereo not drawn) [Example 8, 1-(1′,4-dimethyl-1-phenyl-1H,1′H-3,4′-bipyrazol-5-yl)-3-(isochroman-4-yl)urea] | 100 to 1000 |
| Cc1c(-c2cnn(C)c2)nn(-c2ccccc2)c1NC(=O)NC1CC(C)(C)Oc2ccccc21 (stereo not drawn) [Example 9, 1-(1′,4-dimethyl-1-phenyl-1H,1′H-3,4′-bipyrazol-5-yl)-3-(2,2-dimethylchroman-4-yl)urea] | 100 to 1000 |
| Cc1c(-c2cnn(C)c2)nn(-c2ccccc2)c1NC(=O)NC1COCc2ccc(Br)cc21 (stereo not drawn) [Example 10, 1-(6-bromoisochroman-4-yl)-3-(1′,4-dimethyl-1-phenyl-1H,1′H-[3,4′-bipyrazol]-5-yl)urea] | < 100 |
| Cc1nn(-c2ccccc2)c(NC(=O)N[C@H]2CCCc3ccccc32)c1Br [Example 11, (S)-1-(4-bromo-3-methyl-1-phenyl-1H-pyrazol-5-yl)-3-(1,2,3,4-tetrahydronaphthalen-1-yl)urea] | < 100 |
| CCOc1nn(-c2ccccc2)c(NC(=O)NC2CCOc3cc(F)ccc32)c1C (stereo not drawn) [Example 13, 1-(3-ethoxy-4-methyl-1-phenyl-1H-pyrazol-5-yl)-3-(7-fluorochroman-4-yl)urea] | 100 to 1000 |
| Cc1c(-c2cnn(C)c2)nn(-c2ccccc2)c1NC(=O)NC1CC(C)Oc2ccc(F)cc21 (stereo not drawn) [Example 14, 1-(1′,4-dimethyl-1-phenyl-1H,1′H-[3,4′-bipyrazol]-5-yl)-3-(6-fluoro-2-methylchroman-4-yl)urea] | 100 to 1000 |
| Cc1c(-c2cnn(C)c2)nn(-c2ccccc2)c1NC(=O)NC1CCCc2ccc(Br)cc21 (stereo not drawn) [Example 15, 1-(7-bromo-1,2,3,4-tetrahydronaphthalen-1-yl)-3-(1′,4-dimethyl-1-phenyl-1H,1′H-[3,4′-bipyrazol]-5-yl)urea] | < 100 |
| Cc1c(-c2cnn(C)c2)nn(-c2ccccc2)c1NC(=O)NC1CCC(C)(C)c2ccc(Br)cc21 (stereo not drawn) [Example 16, 1-(7-bromo-4,4-dimethyl-1,2,3,4-tetrahydronaphthalen-1-yl)-3-(1′,4-dimethyl-1-phenyl-1H,1′H-[3,4′-bipyrazol]-5-yl)urea] | < 100 |
| COCCN1CCc2ccccc2C(NC(=O)Nc2c(C)c(-c3cnn(C)c3)nn2-c2ccccc2)C1 (stereo not drawn) [Example 17, 1-(1′,4-dimethyl-1-phenyl-1H,1′H-3,4′-bipyrazol-5-yl)-3-(3-(2-methoxyethyl)-2,3,4,5-tetrahydro-1H-benzo[d]azepin-1-yl)urea] | 100 to 1000 |
